Earlier results on 1 compound are cited in patent publication US20180338982A1, “Cooperative Medication Combination Systems” (priority 2017, published 2018).

The conditions of the series: in vivo.

For `CCC(C)(C)C(=O)O[C@H]1C[C@@H](C)C=C2C=C[C@H](C)[C@H](CC[C@@H]3C[C@@H](O)CC(=O)O3)[C@H]21` [Simvastatin], the Half-life is 2 h.
